Source: ChEMBL document CHEMBL3526033, “Identification of human liver cytochrome P450 enzymes involved in the metabolism of SCH 530348 (Vorapaxar), a potent oral thrombin protease-activated receptor 1 antagonist” (Drug Metab Dispos, 2011)
Values belong to the molecule of their own block, whether it stands above or below them.

Key:
Cytochrome P450 3A5 = Cytochrome P450 3A5 (Homo sapiens, UniProt P20815); assay: Activity of human recombinant CYP3A5 assessed as enzyme-mediated drug metabolism treated with 25 uM vorapaxar after 120 mins by LC-MS/MS analysis in presence of NADPH; assay type: ADME; details: 2 h
Cytochrome P450 1A1 = biological target: T1, Cytochrome P450 1A1 (Homo sapiens, UniProt P04798); assay: Activity of human recombinant CYP1A1 assessed as enzyme-mediated drug metabolism treated with 25 uM vorapaxar after 120 mins by LC-MS/MS analysis in presence of NADPH; assay type: ADME; details: 2 h
T1 sequence (P04798 whole entry): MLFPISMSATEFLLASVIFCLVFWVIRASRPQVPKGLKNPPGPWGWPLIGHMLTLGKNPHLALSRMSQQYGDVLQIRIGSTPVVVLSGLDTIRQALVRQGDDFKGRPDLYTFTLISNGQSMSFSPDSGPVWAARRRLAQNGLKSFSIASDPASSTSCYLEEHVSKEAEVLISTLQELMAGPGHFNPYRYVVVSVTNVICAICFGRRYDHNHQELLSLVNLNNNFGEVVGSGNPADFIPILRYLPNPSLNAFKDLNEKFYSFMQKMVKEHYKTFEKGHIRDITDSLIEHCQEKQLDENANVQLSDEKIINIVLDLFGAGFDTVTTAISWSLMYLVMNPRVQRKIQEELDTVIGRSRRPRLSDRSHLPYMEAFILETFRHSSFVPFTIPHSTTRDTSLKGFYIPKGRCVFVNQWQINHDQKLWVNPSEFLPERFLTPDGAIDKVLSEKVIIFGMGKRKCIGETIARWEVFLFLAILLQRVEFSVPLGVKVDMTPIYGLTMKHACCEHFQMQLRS

Cytochrome P450 4F2 = Cytochrome P450 4F2 (Homo sapiens, UniProt P78329); assay: Activity of human recombinant CYP4F2 assessed as enzyme-mediated drug metabolism treated with 25 uM vorapaxar after 120 mins by LC-MS/MS analysis in presence of NADPH; assay type: ADME; details: 2 h
Cytochrome P450 2B6 = biological target: T2, Cytochrome P450 2B6 (Homo sapiens, UniProt P20813); assay: Activity of human recombinant CYP2B6 assessed as enzyme-mediated drug metabolism treated with 25 uM vorapaxar after 120 mins by LC-MS/MS analysis in presence of NADPH; assay type: ADME; details: 2 h
T2 sequence (P20813 whole entry): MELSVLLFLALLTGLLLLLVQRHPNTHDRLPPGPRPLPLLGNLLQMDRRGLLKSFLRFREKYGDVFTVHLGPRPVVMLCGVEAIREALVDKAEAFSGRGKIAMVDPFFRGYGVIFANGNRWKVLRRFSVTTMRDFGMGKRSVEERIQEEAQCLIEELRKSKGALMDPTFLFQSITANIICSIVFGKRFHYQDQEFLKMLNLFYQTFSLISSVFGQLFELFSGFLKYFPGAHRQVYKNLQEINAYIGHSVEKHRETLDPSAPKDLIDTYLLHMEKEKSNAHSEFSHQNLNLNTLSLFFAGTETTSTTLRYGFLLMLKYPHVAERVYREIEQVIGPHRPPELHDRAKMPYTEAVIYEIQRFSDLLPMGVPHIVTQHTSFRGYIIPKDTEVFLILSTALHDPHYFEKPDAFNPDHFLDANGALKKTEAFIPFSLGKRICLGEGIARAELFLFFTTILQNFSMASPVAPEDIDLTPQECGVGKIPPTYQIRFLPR

Liver microsome [1] = assay: Drug metabolism in human liver microsomes overexpressing CYP3A4 assessed as (3R,3aS,4S,4aR,7R,8aR,9aR)-7-amino-4-((E)-2-(5-(3-fluorophenyl)pyridin-2-yl)vinyl)-3-methyldecahydronaphtho[2,3-c]furan-1(3H)-one formation at 25 uM after 120 mins by LC-MS/MS analysis in presence of ketoconazole; assay type: ADME; details: 2 h
Liver microsome [2] = assay: Drug metabolism in human liver microsomes overexpressing CYP3A4 assessed as (3R,3aS,4S,4aR,7R,8aR,9aR)-7-amino-4-((E)-2-(5-(3-fluorophenyl)pyridin-2-yl)vinyl)-3-methyldecahydronaphtho[2,3-c]furan-1(3H)-one formation at 25 uM after 120 mins by LC-MS/MS analysis in presence of ticlopidine; assay type: ADME; details: 2 h
Liver microsome [3] = assay: Drug metabolism in human liver microsomes assessed as 2-hydroxyethyl (1R,3aR,4aR,6R,8aR,9S,9aS)-9-((E)-2-(5-(3-fluorophenyl)pyridin-2-yl)vinyl)-1-methyl-3-oxododecahydronaphtho[2,3-c]furan-6-ylcarbamate formation at 25 uM after 120 mins by LC-MS/MS analysis in presence of ketoconazole; assay type: ADME; details: 2 h
Liver microsome [4] = assay: Drug metabolism in human liver microsomes assessed as (3R,3aS,4S,4aR,7R,8aR,9aR)-7-amino-4-((E)-2-(5-(3-fluorophenyl)pyridin-2-yl)vinyl)-3-methyldecahydronaphtho[2,3-c]furan-1(3H)-one formation at 10 to 25 uM after 120 mins by LC-MS/MS analysis in presence of CYP3A4-specific inhibitory monoclonal antibody; assay type: ADME; details: 2 h
Liver microsome [5] = assay: Drug metabolism in human liver microsomes assessed as (3R,3aS,4S,4aR,7R,8aR,9aR)-7-amino-4-((E)-2-(5-(3-fluorophenyl)pyridin-2-yl)vinyl)-3-methyldecahydronaphtho[2,3-c]furan-1(3H)-one formation at 10 to 25 uM after 120 mins by LC-MS/MS analysis in presence of alpha-napthoflavone; assay type: ADME; details: 2 h
[6] = Drug metabolism in human liver S9 fraction assessed as compound remaining at 10 uM after 120 mins by LC-MS/MS analysis in presence of NADPH; assay type: ADME, subcellular; details: read-out: Compound recovery
[7] = Drug metabolism in human liver microsomes assessed as compound remaining at 10 uM after 120 mins by LC-MS/MS analysis in presence of NADPH; assay type: ADME; details: read-out: Compound recovery
CYP1A2 = CYP1A2 (Homo sapiens, UniProt P05177); assay: Activity of human recombinant CYP1A2 assessed as enzyme-mediated drug metabolism at 10 uM after 120 mins by LC-MS/MS analysis in presence of NADPH; assay type: ADME; details: read-out: Compound recovery
Liver microsome [8] = assay: Drug metabolism in human liver microsomes assessed as 2-hydroxyethyl (1R,3aR,4aR,6R,8aR,9S,9aS)-9-((E)-2-(5-(3-fluorophenyl)pyridin-2-yl)vinyl)-1-methyl-3-oxododecahydronaphtho[2,3-c]furan-6-ylcarbamate formation at 25 uM after 120 mins by LC-MS/MS analysis in presence of CYP3A4-specific inhibitory monoclonal antibody; assay type: ADME; details: 2 h
Cytochrome P450 2C8 = Cytochrome P450 2C8 (Homo sapiens, UniProt P10632); assay: Activity of human recombinant CYP2C8 assessed as enzyme-mediated 2-hydroxyethyl (1R,3aR,4aR,6R,8aR,9S,9aS)-9-((E)-2-(5-(3-fluorophenyl)pyridin-2-yl)vinyl)-1-methyl-3-oxododecahydronaphtho[2,3-c]furan-6-ylcarbamate formation at 25 uM after 120 mins by LC-MS/MS analysis in presence of NADPH; assay type: ADME; details: 2 h
Cytochrome P450 2C9 = Cytochrome P450 2C9 (Homo sapiens, UniProt P11712); assay: Activity of human recombinant CYP2C9 assessed as enzyme-mediated 2-hydroxyethyl (1R,3aR,4aR,6R,8aR,9S,9aS)-9-((E)-2-(5-(3-fluorophenyl)pyridin-2-yl)vinyl)-1-methyl-3-oxododecahydronaphtho[2,3-c]furan-6-ylcarbamate formation at 25 uM after 120 mins by LC-MS/MS analysis in presence of NADPH; assay type: ADME; details: 2 h
Cytochrome P450 3A4 = Cytochrome P450 3A4 (Homo sapiens, UniProt P08684); assay: Activity of human recombinant CYP3A4 assessed as enzyme-mediated (3R,3aS,4S,4aR,7R,8aR,9aR)-7-amino-4-((E)-2-(5-(3-fluorophenyl)pyridin-2-yl)vinyl)-3-methyldecahydronaphtho[2,3-c]furan-1(3H)-one formation assessed per nmol of enzyme at 10 uM after 120 mins by LC-MS/MS analysis in presence of NADPH; assay type: ADME; details: 2 h
Cytochrome P450 3A4, sequence (P08684 whole entry): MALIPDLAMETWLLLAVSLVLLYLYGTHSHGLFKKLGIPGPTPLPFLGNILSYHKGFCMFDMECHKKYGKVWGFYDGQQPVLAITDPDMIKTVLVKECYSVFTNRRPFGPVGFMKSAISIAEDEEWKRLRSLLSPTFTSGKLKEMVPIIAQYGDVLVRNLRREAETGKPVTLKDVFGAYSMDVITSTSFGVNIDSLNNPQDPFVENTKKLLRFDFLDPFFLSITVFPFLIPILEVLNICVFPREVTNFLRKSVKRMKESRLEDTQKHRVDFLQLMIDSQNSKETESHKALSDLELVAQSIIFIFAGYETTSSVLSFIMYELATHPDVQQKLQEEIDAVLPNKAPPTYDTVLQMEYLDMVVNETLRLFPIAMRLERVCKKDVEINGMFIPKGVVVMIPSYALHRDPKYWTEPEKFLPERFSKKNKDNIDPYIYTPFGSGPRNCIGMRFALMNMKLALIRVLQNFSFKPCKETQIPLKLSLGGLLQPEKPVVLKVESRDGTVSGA

Cytochrome P450 3A5, sequence (P20815 whole entry): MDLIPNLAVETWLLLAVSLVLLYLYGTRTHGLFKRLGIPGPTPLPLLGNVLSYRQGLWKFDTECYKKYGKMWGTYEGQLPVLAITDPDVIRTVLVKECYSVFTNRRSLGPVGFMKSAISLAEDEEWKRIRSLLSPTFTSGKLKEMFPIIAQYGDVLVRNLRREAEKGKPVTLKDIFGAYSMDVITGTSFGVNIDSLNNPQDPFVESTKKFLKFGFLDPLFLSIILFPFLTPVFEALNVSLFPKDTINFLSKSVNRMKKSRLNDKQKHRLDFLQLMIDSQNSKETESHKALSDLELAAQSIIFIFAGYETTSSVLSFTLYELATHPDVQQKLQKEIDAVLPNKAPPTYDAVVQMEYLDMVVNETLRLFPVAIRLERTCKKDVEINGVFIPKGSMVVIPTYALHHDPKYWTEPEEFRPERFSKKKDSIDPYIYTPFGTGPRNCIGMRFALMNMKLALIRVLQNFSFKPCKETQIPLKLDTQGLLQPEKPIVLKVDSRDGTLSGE
Cytochrome P450 4F2, sequence (P78329 whole entry): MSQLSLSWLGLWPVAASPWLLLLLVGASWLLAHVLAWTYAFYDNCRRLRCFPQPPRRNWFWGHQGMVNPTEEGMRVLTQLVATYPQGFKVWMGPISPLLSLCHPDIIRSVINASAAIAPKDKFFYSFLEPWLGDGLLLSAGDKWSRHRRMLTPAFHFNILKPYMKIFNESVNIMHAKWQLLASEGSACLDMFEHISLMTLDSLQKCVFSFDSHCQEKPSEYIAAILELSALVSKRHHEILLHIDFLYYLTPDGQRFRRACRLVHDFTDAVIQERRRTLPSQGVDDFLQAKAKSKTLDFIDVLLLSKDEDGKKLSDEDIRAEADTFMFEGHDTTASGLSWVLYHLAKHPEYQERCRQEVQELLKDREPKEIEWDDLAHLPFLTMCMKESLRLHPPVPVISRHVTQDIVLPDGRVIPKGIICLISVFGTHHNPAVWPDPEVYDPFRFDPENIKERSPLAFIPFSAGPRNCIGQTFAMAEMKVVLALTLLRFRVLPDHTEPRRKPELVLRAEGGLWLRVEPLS
CYP1A2, sequence (P05177 whole entry): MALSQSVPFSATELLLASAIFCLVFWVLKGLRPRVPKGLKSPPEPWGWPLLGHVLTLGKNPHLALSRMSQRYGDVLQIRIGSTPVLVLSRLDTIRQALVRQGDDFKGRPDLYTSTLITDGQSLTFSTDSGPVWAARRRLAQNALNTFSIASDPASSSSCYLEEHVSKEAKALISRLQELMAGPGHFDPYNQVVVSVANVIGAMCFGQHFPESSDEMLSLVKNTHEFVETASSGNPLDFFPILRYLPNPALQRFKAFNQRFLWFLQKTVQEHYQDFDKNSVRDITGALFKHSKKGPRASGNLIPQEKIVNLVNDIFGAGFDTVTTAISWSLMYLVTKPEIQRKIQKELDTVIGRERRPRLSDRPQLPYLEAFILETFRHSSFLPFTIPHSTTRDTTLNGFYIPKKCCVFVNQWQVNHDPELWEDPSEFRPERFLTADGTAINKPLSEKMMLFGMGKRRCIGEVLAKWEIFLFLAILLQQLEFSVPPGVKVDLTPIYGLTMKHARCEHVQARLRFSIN
Cytochrome P450 2C8, sequence (P10632 whole entry): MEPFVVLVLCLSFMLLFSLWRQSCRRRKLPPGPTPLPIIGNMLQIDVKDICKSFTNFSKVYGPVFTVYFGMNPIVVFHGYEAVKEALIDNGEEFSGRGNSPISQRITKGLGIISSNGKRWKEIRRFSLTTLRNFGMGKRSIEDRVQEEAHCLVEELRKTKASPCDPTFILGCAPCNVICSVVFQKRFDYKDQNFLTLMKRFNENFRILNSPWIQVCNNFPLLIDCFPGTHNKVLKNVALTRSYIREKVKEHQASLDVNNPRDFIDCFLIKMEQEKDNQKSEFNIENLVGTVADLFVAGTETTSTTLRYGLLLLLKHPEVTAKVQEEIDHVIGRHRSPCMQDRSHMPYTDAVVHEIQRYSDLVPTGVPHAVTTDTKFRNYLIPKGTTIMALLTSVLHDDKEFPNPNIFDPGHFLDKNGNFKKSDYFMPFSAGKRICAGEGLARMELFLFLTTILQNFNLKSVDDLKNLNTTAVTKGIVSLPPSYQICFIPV
Cytochrome P450 2C9, sequence (P11712 whole entry): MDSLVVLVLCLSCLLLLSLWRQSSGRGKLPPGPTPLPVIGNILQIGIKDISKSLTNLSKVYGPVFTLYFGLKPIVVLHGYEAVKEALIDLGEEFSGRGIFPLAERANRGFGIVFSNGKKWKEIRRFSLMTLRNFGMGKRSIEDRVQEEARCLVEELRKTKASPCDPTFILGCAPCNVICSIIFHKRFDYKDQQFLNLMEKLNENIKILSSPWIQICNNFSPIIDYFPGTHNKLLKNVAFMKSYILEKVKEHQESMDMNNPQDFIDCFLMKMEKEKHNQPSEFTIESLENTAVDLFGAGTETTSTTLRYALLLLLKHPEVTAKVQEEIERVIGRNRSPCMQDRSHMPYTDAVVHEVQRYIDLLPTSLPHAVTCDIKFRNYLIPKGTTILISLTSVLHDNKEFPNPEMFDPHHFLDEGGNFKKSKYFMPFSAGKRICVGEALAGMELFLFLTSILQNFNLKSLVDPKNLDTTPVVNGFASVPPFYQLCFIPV

- Drug metabolism (Cytochrome P450 3A5): metabolite_detected
- Drug metabolism (Cytochrome P450 1A1): metabolite_detected
- Drug metabolism (Cytochrome P450 4F2): metabolite_detected
- Drug metabolism (Cytochrome P450 2B6): metabolite_detected
SMILES: C[C@H]1OC(=O)[C@@H]2C[C@@H]3C[C@H](NC(=O)OCCO)CC[C@H]3[C@H](/C=C/c3ccc(-c4cccc(F)c4)cn3)[C@H]12

- Drug metabolism (Liver microsome [1]): metabolite_not_detected
- Drug metabolism (Liver microsome [2]): metabolite_not_detected
- Drug metabolism (Liver microsome [3]): metabolite_not_detected
- Drug metabolism (Liver microsome [4]): metabolite_not_detected
- Drug metabolism (Liver microsome [5]): metabolite_detected
- remaining at 2 h, 10 µM [6]: 95.7%
- remaining at 2 h, 10 µM [7]: 92.7%
- remaining at 2 h, 10 µM (CYP1A2): 98.3%
- Drug metabolism (Liver microsome [8]): metabolite_not_detected
SMILES: CCOC(=O)N[C@@H]1CC[C@@H]2[C@@H](C1)C[C@H]1C(=O)O[C@H](C)[C@H]1[C@H]2/C=C/c1ccc(-c2cccc(F)c2)cn1 [VORAPAXAR]

- Drug metabolism (Cytochrome P450 2C8): metabolite_detected
- Drug metabolism (Cytochrome P450 2C9): metabolite_detected
- Drug metabolism (Cytochrome P450 3A4): 109.8 pmol/min
SMILES: CCOC(=O)N[C@@H]1CC[C@@H]2[C@@H](C1)C[C@H]1C(=O)O[C@H](C)[C@H]1[C@H]2/C=[14CH]/c1ccc(-c2cccc(F)c2)cn1
